Source: ChEMBL document CHEMBL5465560, “Selectivity Literature for EUbOPEN Chemogenomic Library” (2024)
Blank lines part the entries; values can stand above or below the molecule they belong to.

Assays:
[1] = target: Gastrin/cholecystokinin type B receptor (Homo sapiens) (UniProt P32239); assay: Selectivity interaction (Eurofins CEREP Diversity Profile (receptors and ion channels)) EUB0000279b CCKBR; conditions: at 10 µM
[2] = target: Cyclin-dependent kinase 14 (Homo sapiens) (UniProt O94921); assay: Selectivity interaction (KinomeScan (DiscoverX)) EUB0000618a CDK14; conditions: at 10 µM
Chain of Cyclin-dependent kinase 14 (Homo sapiens) (O94921 whole entry): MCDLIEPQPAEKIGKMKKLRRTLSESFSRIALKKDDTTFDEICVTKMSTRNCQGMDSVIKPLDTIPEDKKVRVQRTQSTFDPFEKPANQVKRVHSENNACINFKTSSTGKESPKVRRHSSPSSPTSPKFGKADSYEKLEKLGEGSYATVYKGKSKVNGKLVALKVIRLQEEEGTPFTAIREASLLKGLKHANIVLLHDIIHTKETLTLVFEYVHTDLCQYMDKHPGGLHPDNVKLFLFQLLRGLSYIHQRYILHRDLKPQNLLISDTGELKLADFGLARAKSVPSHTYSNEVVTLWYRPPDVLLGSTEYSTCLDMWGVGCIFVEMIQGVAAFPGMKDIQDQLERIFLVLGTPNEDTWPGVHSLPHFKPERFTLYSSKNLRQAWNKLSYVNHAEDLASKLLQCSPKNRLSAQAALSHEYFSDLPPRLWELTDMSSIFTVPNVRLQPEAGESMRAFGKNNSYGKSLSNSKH

[3] = target: [Pyruvate dehydrogenase (acetyl-transferring)] kinase isozyme 1, mitochondrial (Homo sapiens, UniProt Q15118); assay: Selectivity interaction (SelectScreen profiling (Invitrogen)) EUB0000607a PDK1; conditions: at 2 µM
[4] = target: Mitogen-activated protein kinase kinase kinase 20 (Homo sapiens) (UniProt Q9NYL2); assay: Selectivity interaction (KinomeScan (DiscoverX)) EUB0000045b MAP3K20
Chain of Mitogen-activated protein kinase kinase kinase 20 (Homo sapiens) (Q9NYL2 2-800 limits assumed): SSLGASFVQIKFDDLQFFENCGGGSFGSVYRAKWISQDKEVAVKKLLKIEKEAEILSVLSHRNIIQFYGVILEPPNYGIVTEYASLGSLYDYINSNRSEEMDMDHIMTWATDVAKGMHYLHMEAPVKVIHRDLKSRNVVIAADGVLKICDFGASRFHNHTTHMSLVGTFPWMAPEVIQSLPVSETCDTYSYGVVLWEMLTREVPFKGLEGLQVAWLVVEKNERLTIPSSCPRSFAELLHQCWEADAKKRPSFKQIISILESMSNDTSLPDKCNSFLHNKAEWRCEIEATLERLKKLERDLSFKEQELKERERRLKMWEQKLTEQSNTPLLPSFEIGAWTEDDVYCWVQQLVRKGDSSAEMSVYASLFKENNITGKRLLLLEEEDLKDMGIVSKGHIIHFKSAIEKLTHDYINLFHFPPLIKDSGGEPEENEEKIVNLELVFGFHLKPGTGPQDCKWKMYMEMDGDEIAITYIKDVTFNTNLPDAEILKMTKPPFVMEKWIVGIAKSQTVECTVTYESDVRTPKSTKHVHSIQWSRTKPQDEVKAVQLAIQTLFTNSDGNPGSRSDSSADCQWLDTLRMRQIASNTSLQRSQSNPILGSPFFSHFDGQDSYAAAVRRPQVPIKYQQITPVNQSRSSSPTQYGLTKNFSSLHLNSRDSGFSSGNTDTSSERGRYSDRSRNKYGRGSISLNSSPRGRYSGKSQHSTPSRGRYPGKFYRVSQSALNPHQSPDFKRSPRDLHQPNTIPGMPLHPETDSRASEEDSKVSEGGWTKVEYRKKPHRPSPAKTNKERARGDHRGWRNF

[5] = target: T1, Tyrosine-protein kinase ZAP-70 (Homo sapiens) (UniProt P43403); assay: Selectivity interaction (Upstate Kinase Profiler service (Millipore)) EUB0000056c ZAP70; conditions: at 1 µM
T1 sequence (whole entry): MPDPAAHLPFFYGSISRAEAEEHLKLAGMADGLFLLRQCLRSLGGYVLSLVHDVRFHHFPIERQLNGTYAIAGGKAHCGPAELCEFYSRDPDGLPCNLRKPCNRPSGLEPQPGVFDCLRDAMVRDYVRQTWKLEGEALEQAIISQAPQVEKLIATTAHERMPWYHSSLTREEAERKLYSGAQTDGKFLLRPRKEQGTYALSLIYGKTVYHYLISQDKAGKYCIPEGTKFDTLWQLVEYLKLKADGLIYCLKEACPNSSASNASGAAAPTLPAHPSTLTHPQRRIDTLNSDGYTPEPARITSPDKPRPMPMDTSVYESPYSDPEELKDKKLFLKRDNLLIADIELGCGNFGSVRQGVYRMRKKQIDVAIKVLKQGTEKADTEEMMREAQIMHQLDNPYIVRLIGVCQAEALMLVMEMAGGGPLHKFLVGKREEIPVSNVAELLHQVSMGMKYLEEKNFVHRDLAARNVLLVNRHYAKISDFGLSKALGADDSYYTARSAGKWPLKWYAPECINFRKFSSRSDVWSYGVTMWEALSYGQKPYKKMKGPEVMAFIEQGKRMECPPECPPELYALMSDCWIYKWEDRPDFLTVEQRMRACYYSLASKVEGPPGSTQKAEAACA

[6] = target: Phosphatidylinositol 3-kinase catalytic subunit type 3 (Homo sapiens, UniProt Q8NEB9); assay: Selectivity interaction (Kinase panel (KiNativ target engagement assay in Jurkat cells)) EUB0001635a PIK3C3; assay type: cell-based; conditions: Selectivity number of off-targets 0.0, Selectivity number of targets 233.0, Source Knowledge https://www.sciencedirect.com/science/article/pii/S2451945619300674?via%3Dihub, at 1 µM
Chain of Phosphatidylinositol 3-kinase catalytic subunit type 3 (Q8NEB9 whole entry): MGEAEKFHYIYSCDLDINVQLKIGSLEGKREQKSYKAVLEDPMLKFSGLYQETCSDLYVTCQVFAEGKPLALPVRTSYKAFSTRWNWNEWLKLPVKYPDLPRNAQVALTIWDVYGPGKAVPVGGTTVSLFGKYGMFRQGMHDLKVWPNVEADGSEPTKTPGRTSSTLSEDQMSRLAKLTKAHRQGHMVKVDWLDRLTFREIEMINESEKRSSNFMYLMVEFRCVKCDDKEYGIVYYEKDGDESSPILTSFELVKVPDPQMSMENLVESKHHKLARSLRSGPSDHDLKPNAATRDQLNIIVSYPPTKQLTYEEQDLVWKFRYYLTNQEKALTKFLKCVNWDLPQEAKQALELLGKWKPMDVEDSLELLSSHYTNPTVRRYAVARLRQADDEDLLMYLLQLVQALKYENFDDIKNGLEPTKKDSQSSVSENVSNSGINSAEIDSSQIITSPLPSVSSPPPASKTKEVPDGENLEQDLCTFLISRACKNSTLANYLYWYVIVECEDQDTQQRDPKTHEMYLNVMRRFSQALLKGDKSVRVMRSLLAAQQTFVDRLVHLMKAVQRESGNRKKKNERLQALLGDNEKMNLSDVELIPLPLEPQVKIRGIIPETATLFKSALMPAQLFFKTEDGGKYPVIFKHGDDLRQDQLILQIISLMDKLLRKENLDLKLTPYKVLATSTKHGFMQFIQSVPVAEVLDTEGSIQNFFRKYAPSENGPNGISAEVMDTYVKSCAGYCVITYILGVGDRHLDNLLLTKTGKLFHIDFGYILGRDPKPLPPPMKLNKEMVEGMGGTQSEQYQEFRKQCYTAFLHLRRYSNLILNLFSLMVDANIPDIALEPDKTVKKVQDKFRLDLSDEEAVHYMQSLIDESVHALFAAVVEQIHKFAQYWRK

[7] = target: CDK6/cyclin D1 (Homo sapiens) (UniProt P24385+Q00534); assay: (§1) Selectivity interaction (ProQinase) EUB0000171b CDK6; assay type: protein-complex assay
[8] = target: CDK6/cyclin D3 (Homo sapiens) (UniProt P30281+Q00534); assay: as §1; assay type: protein-complex assay
[9] = target: T2, NUAK family SNF1-like kinase 1 (Homo sapiens) (UniProt O60285); assay: Selectivity interaction (ProQinase) EUB0000171b NUAK1
T2 sequence (whole entry): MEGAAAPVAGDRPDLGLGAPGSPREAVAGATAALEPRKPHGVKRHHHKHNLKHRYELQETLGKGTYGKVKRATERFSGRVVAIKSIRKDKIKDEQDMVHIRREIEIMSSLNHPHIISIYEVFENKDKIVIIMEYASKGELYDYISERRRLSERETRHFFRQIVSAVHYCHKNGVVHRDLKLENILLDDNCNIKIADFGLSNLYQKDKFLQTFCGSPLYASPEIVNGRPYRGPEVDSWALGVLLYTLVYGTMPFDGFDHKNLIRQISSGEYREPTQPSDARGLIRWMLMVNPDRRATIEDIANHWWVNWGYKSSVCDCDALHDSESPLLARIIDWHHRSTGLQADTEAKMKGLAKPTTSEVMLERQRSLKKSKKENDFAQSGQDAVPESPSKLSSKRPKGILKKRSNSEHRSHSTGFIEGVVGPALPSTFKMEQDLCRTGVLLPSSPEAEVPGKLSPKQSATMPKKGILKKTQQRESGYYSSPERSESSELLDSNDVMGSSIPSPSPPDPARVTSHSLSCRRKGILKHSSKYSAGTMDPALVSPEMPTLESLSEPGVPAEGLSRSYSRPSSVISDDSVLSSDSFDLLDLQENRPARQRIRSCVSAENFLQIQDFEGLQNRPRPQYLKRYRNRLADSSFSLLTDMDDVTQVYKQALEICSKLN

[10] = target: T3, Tyrosine-protein kinase Tec (Homo sapiens) (UniProt P42680); assay: Selectivity interaction (KinomeScan (DiscoverX)) EUB0001049a TEC; conditions: at 1 µM
T3 sequence (whole entry): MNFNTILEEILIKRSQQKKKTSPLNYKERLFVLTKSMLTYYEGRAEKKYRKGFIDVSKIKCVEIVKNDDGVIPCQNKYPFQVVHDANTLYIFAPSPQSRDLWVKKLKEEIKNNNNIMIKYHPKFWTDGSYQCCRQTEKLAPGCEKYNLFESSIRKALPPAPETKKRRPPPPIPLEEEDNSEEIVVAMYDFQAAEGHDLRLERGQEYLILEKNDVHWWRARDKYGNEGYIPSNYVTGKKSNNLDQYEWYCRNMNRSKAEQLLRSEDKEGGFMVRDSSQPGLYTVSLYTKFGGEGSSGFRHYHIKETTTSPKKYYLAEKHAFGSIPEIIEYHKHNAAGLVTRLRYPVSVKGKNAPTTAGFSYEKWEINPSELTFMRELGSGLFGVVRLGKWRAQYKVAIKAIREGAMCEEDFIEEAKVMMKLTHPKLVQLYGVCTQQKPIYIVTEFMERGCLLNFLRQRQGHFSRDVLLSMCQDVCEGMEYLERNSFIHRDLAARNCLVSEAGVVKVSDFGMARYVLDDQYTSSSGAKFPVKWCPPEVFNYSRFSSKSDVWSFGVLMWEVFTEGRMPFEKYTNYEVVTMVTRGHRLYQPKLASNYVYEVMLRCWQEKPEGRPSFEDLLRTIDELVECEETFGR

[11] = target: Mitogen-activated protein kinase kinase kinase 9 (Homo sapiens) (UniProt P80192); assay: Selectivity interaction (Kinase panel (Z-LYTE Assay)) EUB0001632a MAP3K9; conditions: at 10 µM
Chain of Mitogen-activated protein kinase kinase kinase 9 (Homo sapiens) (P80192 whole entry, looked up): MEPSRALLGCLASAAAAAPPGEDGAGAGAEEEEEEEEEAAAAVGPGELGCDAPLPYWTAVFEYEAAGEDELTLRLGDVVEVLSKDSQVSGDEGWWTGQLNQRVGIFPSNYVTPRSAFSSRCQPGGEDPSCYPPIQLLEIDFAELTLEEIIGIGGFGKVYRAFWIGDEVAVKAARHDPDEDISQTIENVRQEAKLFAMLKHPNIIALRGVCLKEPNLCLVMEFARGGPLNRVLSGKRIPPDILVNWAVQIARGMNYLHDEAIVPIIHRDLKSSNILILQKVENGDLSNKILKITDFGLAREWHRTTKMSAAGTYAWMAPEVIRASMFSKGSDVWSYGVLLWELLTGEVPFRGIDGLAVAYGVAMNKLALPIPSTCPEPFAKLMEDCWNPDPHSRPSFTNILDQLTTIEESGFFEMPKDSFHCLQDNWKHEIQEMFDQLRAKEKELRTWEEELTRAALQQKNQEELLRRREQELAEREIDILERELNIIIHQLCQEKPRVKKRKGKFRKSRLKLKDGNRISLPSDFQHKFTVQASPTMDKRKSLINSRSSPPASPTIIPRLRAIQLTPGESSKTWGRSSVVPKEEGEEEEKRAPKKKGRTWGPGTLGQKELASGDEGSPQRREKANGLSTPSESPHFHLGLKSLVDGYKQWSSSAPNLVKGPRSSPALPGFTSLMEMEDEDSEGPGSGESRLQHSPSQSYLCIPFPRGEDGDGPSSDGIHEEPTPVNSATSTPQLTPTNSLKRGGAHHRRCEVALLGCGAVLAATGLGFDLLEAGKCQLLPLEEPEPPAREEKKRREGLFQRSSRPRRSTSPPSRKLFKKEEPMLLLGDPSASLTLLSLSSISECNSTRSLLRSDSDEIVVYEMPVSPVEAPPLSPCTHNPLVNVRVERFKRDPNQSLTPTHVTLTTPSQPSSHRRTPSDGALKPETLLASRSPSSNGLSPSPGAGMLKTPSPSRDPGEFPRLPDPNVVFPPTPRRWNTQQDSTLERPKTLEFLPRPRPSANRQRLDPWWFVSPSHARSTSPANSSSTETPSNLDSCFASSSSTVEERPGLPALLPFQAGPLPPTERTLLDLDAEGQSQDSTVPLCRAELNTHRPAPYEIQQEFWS

Chain of Gastrin/cholecystokinin type B receptor (Homo sapiens) (P32239 whole entry): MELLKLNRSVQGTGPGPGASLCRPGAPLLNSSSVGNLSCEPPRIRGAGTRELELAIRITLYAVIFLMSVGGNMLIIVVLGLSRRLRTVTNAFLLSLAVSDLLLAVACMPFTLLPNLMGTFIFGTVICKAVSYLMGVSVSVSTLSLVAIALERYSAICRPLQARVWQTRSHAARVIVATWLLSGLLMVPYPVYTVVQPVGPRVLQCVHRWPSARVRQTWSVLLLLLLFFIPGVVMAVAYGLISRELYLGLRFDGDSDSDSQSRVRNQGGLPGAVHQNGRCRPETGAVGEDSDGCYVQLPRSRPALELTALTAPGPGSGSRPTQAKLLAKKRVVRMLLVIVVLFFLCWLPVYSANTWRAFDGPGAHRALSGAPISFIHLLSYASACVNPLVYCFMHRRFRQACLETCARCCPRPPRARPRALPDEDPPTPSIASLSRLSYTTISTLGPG

% of control [1]: 95%
Structure (SMILES): CC(=O)c1cc(-c2ccccc2OCC2CC2)c2ncccn12

Structure (SMILES): O[C@H]1CC[C@H](Nc2ncc3nc(Nc4c(F)cc(F)cc4F)n([C@H]4CCOC4)c3n2)CC1
% of control [2]: 100%

Structure (SMILES): CNC(=O)Nc1ccc(-c2nc(N3CC4CCC(C3)O4)c3cnn(C4CCC5(CC4)OCCO5)c3n2)cc1
% of inhibition [3]: 3%

Structure (SMILES): C=CC(=O)Nc1cc(-n2c(=O)ccc3cnc4ccc(-c5ccc(NS(C)(=O)=O)cc5)cc4c32)ccc1C
% of control ([4]; at 1 µM): 64%
% of control ([4]; at 10 µM): 12%

% of inhibition [5]: -8%
Structure (SMILES): Cc1ccc(-c2ccc3c(ccc4sc5c(c43)NC[C@@H](C)NC5=O)n2)cn1

Structure (SMILES): C=CC(=O)Nc1ccc(C(=O)Nc2[nH]nc3c2CN(C(=O)N[C@H](CN(C)C)c2ccccc2)C3(C)C)cc1
% of engagement [6]: -5.1%

% of control ([7]; at 1 µM): 91%
% of control ([7]; at 5 µM): 87%
% of control ([8]; at 1 µM): 93%
% of control ([8]; at 5 µM): 86%
% of control ([9]; at 1 µM): 97%
% of control ([9]; at 5 µM): 88%
Structure (SMILES): C=CC(=O)Nc1cccc(C(=O)Nc2ccc(Nc3cc(-c4[nH]c(SC)nc4C)ccn3)cc2)c1

Structure (SMILES): COc1cc(Nc2nc(C)cc(-c3cnn4nc(OC)ccc34)n2)cc(C(F)(F)F)c1
% of control [10]: 78%

% of control [11]: -5.34%
Structure (SMILES): Cn1cc(-n2cnc3c(NCc4nc5cc(Cl)c(Cl)cc5[nH]4)nc(N4CCOCC4)nc32)cn1
